Experimental data reported in US6489364B2, “Antiviral protease inhibitors” (priority 1997, dated 2002).
Values after ≈ are worked out from the molar mass of the structure shown. Where two headings read alike, the source gives them in different places.

Columns and labels:
[1] = biological target: T1, purified HIV proteinase (Human immunodeficiency virus type 1 group M subtype B, UniProt P04585); assay: biochemical
T1 construct: purified HIV proteinase
Procedure: Representative compounds were tested for HIV protease activity in a spectrophotometric enzyme assay using the chromogenic substrate His-Lys-Ala-Arg-Val-Leu-p-nitro-Phe-Glu-Ala-Nle-Ser-amide and purified HIV proteinase. The rate of cleavage is followed by continuously registering the change in absorbance at 300 nm. […]

[2] = test system: HIV-1; assay: HIV-1 infected MT4 cell culture, XTT assay; format: cell-based
Procedure: Compounds are also tested for HIV protease activity in cell culture. MT4 cells grown in RPMI 1640 cell culture medium including 10% fetal calf serum are infected with 10 TCID HIV-1 per 2×10^5 cells and cultured for 6 days. XTT is added and the amount of XTT formazan produced in the following 6 hours represents the number of surviving cells. Results are expressed as the ED50, that is the concentration in μg/ml of the compound of the invention which suppresses viral replication by 50%.

[3] = Human immunodeficiency virus 1, MT4, 144 h

| SMILES | Ki [1] | EC50 [2, 3] | Ki ([1]; values in parentheses, affinity constant, read-out: (Ki μM)) | EC50 ([2]; Human immunodeficiency virus 1, 144 h, second part of Table 1, head EC50, MT4 cells, HIV-1, 6 days, XTT, read-out: EC50) |
| --- | --- | --- | --- | --- |
| CNC(=O)[C@@H](NC(=O)[C@H](OCc1ccc(/C=C/C(=O)OC)cc1)[C@H](O)[C@@H](O)[C@@H](OCc1ccc(/C=C/C(=O)OC)cc1)C(=O)N[C@H](C(=O)NC)C(C)C)C(C)C [Example 31] | 0.09 nM | 0.3 µg/mL (≈ 0.383 µM) | – | – |
| CCOC1=C(c2ccc(CO[C@@H](C(=O)N[C@H](C(=O)NC)C(C)C)[C@H](O)[C@@H](O)[C@@H](OCc3ccc(C4=C(OCC)C(=O)CCC4)cc3)C(=O)N[C@H](C(=O)NC)C(C)C)cc2)CCCC1=O [Example 32] | – | – | 0.3 nM | 0.2 µg/mL (≈ 0.224 µM) |
| CNC(=O)[C@@H](NC(=O)[C@H](OCc1ccc(C2=C(O)C(=O)CCC2)cc1)[C@H](O)[C@@H](O)[C@@H](OCc1ccc(C2=C(O)C(=O)CCC2)cc1)C(=O)N[C@H](C(=O)NC)C(C)C)C(C)C [Example 33] | 0.5 nM | 0.2 µg/mL (≈ 0.24 µM) | – | – |
